Assays:
[1] = system: cells in void urine samples from prostate cancer patients; test: Cytometry of urine samples from cancer patients; type: cell-based, human; conditions: for highest relative bound fraction from other samples: other subjects
Experimental: Cytometry of urine samples from cancer patients. 10-15 mL void urine sample was collected from each cancer patient. The cells in those samples were collected by centrifugation at […] for 10 minutes at 4° C., and were re-suspended in PBS. Then, the cells from each sample were divided into three aliquots: one was used in cytometry; another was used in RT-qPCR; and the rest was mixed with cryo-protectant (80% FBS and 20% DMSO) at 1:1 ratio, and stored in liquid nitrogen. The cells used for cytometry were incubated with 0, 0.5, 1, and 5 μM PDCy3, respectively, on ice for 20 minutes in the dark, and then were analyzed by flowcytometry.
The urine samples were labeled with 0.0, 0.5, 1.0, and 5.0 μM probe, respectively, at 4° C. for half an hour, and then were subjected to FACS analysis. Different cell populations could be distinguished by their side scattering and fluorescent intensity of bound probes (FIG. 6A). […] At 0.5 μM of the probe, the relative bound probe to this sample was 13.6 times higher than the average of others. In addition, the fractions of bound probe at […] relative to the one at 5.0 μM concentration were 0.28 and 0.30, respectively. In contrast, the highest relative bound fractions at 0.5 and 1.0 μM probe from other samples were 0.1 and 0.16, respectively.

EGFR L834R = target: T1, EGFR L834R (Homo sapiens, UniProt P00533, L858R); test: Flowcytometry of PDCy3 binding to cells expressing EGFR L834R mutant; type: cell-based; conditions: L834R mutation, 1 μM PDCy3
T1 construct: plasmids encoding human EGFR (1-988) and split YFP fragments; expressed in transfected cells; host or cells: HEK 293T
Experimental: Cell sorting. Following starvation in EX-Cell 293 Serum-Free Medium for 44 hours, transfected cells were treated with gefitinib, PDCy3, or EGF for 4 hours at 37° C. Then, the cells were washed twice with 500 μl/well ice-cold PBS, and were re-suspended in 400 μl/well PBS. The final cell density was estimated to be 5×10^5˜1×10^6 cells/ml. To detect EGFR expression, 3 μd anti-EGFR 528 antibody (santa cruz biotechnology inc, USA) at 200 μg/ml concentration was added to each well of re-suspended cells. After 30-minute incubation on ice, cells were washed twice with 500 μl/well PBS, and were re-suspended in […]. Then, 0.3 μl FITC-labelled secondary antibody at a concentration of 2 mg/ml was added to each sample. After incubation on ice for 30 minutes, cells were washed three times with PBS, re-suspended in 400 μl/well PBS, and analyzed by flowcytometry using a BD FACS Calibur machine.
Cell sorting. Following starvation in EX-Cell 293 Serum-Free Medium for 44 hours, transfected cells were treated with gefitinib, PDCy3, or EGF for 4 hours at 37° C. Then, the cells were washed twice with 500 μL/well ice-cold PBS, and were re-suspended in 400 μL/well PBS. The final cell density was estimated to be 5×10^5˜1×10^6 cells/mL. […] After incubation on ice for 30 minutes, cells were washed three times with PBS, re-suspended in 400 μL/well PBS, and analyzed by floweytometry using a BD FACS Calibur machine.

EGFR wild type = target: T2, EGFR wild type (Homo sapiens, UniProt P00533); test: Flowcytometry of PDCy3 binding to EGFR-transfected HEK293T cells (cell sorting); type: cell-based
T2 construct: plasmids encoding human EGFR (1-988) and split YFP fragments; host or cells: HEK 293T
Experimental: (§1) Cell sorting. […] After 30-minute incubation on ice, cells were washed twice with 500 μl/well PBS, and were re-suspended in 400 l PBS. Then, 0.3 μl FITC-labelled secondary antibody at a concentration of 2 mg/ml was added to each sample. After incubation on ice for 30 minutes, cells were washed three times with PBS, re-suspended in 400 μl/well PBS, and analyzed by flowcytometry using a BD FACS Calibur machine.
The binding abilities of the PDCy3 probe to EGFR-expressed cells were compared by flowcytometry under different conditions.
We compared the efficiencies in labelling EGFR over-expressed cells versus those non-over-expressed cells under different PDCy3 concentrations (FIG. 3A).
as §1, with “500 μL/well” for “500 μl/well”, “400 μL” for “400 l”, “0.3 μL” for “0.3 μl”, “2 mg/mL” for “2 mg/ml”, “400 μL/well” for “400 μl/well”, “by floweytometry” for “by flowcytometry”
The binding abilities of PDCy3 to EGFR-expressed and non-expressed cells were compared by flowcytometry under different conditions.
To characterize the specificity of PDCy3, we compared the efficiencies in labelling EGFR over-expressed cells versus those non-over-expressed cells under different PDCy3 concentrations (FIG. 3A).

- population (fraction) of PDCy3-bound, EGFR positive cells (EGFR L834R): 65.9%
- effect of EGF treatment on binding of PDCy3 to EGFR-expressed cells (EGFR wild type; 10 nM EGF): did not enhance
- EGFR positive cells labeled by the probe (EGFR wild type; 1 μM PDCy3, transfected HEK293T cells): over 84.9%
- sensitivity of transfected cells to PDCy3 in flowcytometry (EGFR wild type; 293T cells transfected with the WT receptor): high sensitivity
- population of EGFR-expressed, PDCy3 positive cells (EGFR wild type; in the presence of EGF (10 nM), 1 μM PDCy3, no gefitinib): 45.4%
- fraction of EGFR-expressed, PDCy3 positive cells relative to the total EGFR-expressed cells (EGFR wild type; in the presence of EGF, no gefitinib): 24.9%
- relative bound PDCy3 (EGFR wild type; in the presence of EGF, no gefitinib, mean fluorescent intensity times fraction of PDCy3+/EGFR+ cells): 45.4 a.u.
- population (fraction) of PDCy3-bound, EGFR positive cells (EGFR wild type; wild type EGFR, 1 μM PDCy3): 52.4%
Compound: CN1/C(=C/C=C/C2=[N+](CCCCCC(=O)NCCC/C=C/C(=O)Nc3ccc4ncnc(Nc5cccc(Br)c5)c4c3)c3ccc(S(=O)(=O)O)cc3C2(C)C)C(C)(C)c2cc(S(=O)(=O)[O-])ccc21 [PDCy3, 1-(6-((E)-6-(4-(3-bromophenylamino)quinazolin-6-ylamino)-6-oxohex-4-enylamino)-6-oxohexyl)-3,3-dimethyl-2-((1E,3E)-3-(1,3,3-trimethyl-5-sulfonatoindolin-2-ylidene)prop-1-enyl)-3H-indolium-5-sulfonate]
- relative bound probe, sample of subject 4 versus the average of others ([1]; 0.5 μM probe): 13.6 times
- highest relative bound fraction from other samples ([1]; 0.5 μM probe): 0.1
- highest relative bound fraction from other samples ([1]; 1.0 μM probe): 0.16
- fraction of bound probe relative to the one at 5.0 μM concentration ([1]; subject 4, 0.5 μM probe): 0.28
- fraction of bound probe relative to the one at 5.0 μM concentration ([1]; subject 4, 1.0 μM probe): 0.30
